# Laboratory results: PMC12126525, “Mechanism of ATP hydrolysis in the Hsp70 BiP nucleotide-binding domain” (Nature Communications, 2025)
# Values joined by “and” are separate entries in the source; they are usually repeats but may differ in a detail not shown here. Identical values can stand only once. Like-named read-outs stand apart in the source and are kept apart here.
# Key:
# BiP NBD [1] = target: T1, BiP NBD (Homo sapiens, UniProt P11021); assay: NMR experiment with MABA-ATP (no E1, no E2) and kinetic fit of the MABA-ATP/MABA-ADP functional cycle; format: biochemical; design: His6 (N, cleaved yes); made in house; host or cells: E. coli BL21-(DE3)-Lemo, pET28a vector; details: for koff / kon / Kd: MABA-ATP instead of ATP; for Kd: T = 37°C; for species: Supplementary Fig 13b
# Protocol: […] After the equilibration time 2D [^13C,^1H]-HMQC spectra were recorded in interleaved mode with 1D ^1H NMR spectra. […] The same setup was used for the alternative experiments by including or excluding E1 and/or E2. When E1 was not included, the ratio of the ATP/ADP NMR signals was used to monitor their relative concentrations.
# (1 picture or pasted object on this page, not shown here)
# BiP NBD [2] = target: T1, BiP NBD; assay: NMR titration (equilibrium methyl-TROSY) with phosphate; format: binding; design: His6 (N, cleaved yes); made in house; host or cells: E. coli BL21-(DE3)-Lemo, pET28a vector; details: for Average IMABAADP.pi/IMABAADP: Supplementary Fig 12 f
# BiP NBD [3] = target: T1, BiP NBD; assay: NMR without ATP regeneration at variable ADP:ATP ratio with 3.3 mM calcium, with and without E2; format: biochemical; design: His6 (N, cleaved yes); made in house; host or cells: E. coli BL21-(DE3)-Lemo, pET28a vector; details: replicates
# From the text: Finally, we wanted to explore the effect of calcium on conditions with variable ADP concentration that represent the conditions in the ER. We thus exploited our modular experimental setup in the absence of the ATP regeneration system, with and without phosphate, to generate conditions where the ADP concentration increases (Supplementary Fig. 18). We determined the ATP hydrolysis rate and the populations of the different states for different ADP:ATP ratios and phosphate concentrations. We observed NMR signals corresponding to the NBD·ADP·Ca^2+-bound state, but not the NBD·Ca^2+-bound state, with population and occupancy time increasing with the ADP concentration (Fig. 5e). When free phosphate was allowed to accumulate in parallel, the occupancy time of the NBD·ADP·Ca^2+ state decreased, showing that the phosphate prevents the calcium from binding (Fig. 5f).
# Supplementary Figure 18. NBD·ADP·Ca2+ forms as an off-cycle pathway state. a, 2D [13C,1H]-TROSY spectrum of methyl-labeled NBD in the presence of ADP:ATP 1:3, 3.3 mM calcium ([Mg2+]/[Ca2+]=3) and E2 active. State- and sequence-specific resonance assignments are indicated for the ADP·Ca2+- bound state (dark-pink), ADP-bound (light blue), ADP·Pi-bound (dark blue) and ATP-bound (red) states. b, Selected sections of 2D [13C,1H]-methyl-TROSY spectra of residue Val50cg1 in the presence of ADP:ATP 1:3 (pink) and with 3.3 mM calcium ([Mg2+]/[Ca2+]=3) (black) compared to in-cyclo no calcium (pink) and the equilibrium experiments of NBD with 3.3 mM calcium ([Mg2+]/[Ca2+]=3) (ligh-pink), NBD with 1 mM ADP and 3.3 mM calcium ([Mg2+]/[Ca2+]=3) (dark-pink). c,d, same as in (a,b) for the system in the absence of E2, i.e the phosphate concentration increases with ATP hydrolysis.
# BiP NBD [4] = target: T1, BiP NBD; details: for tADP: Supplementary Fig 16b
# Protocol: We next wanted to compare our determined kinetic rates of ADP dissociation, koff2 and koff5 , with a standard assay in the Hsp70 field that measures ADP lifetimes by ADP displacement.
# The dissociation rate constants (koff) were determined by fitting the data to a one phase exponential function using a python script. […]
# The red line corresponds to the mono-exponential fit of the data. […]
# from 0.001 to 10 mM, in the absence of Pi (pink circles) and with 0.5 mM Pi (blue circles). Data points represent the mean for three independent experiments and the error bar represents the standard deviation. The half maximal inhibitory concentration (IC50) of Ca was calculated from three
# BiP NBD [5] = target: T1, BiP NBD; assay: In-cyclo NMR in the presence of 3.3 mM calcium; format: biochemical; design: His6 (N, cleaved yes); made in house; host or cells: E. coli BL21-(DE3)-Lemo, pET28a vector
# T1 sequence (P11021 19-406): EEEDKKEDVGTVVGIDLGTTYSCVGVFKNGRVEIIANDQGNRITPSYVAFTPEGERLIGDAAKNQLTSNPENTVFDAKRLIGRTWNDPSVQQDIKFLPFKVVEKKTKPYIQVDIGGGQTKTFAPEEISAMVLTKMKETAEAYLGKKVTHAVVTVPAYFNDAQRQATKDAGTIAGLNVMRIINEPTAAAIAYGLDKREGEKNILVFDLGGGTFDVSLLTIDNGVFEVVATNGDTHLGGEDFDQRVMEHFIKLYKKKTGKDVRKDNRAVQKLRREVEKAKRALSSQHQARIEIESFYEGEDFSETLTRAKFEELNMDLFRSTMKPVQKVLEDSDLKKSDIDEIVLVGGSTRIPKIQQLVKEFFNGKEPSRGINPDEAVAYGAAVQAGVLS
compound,measurement,setting,value
O=P(O)(O)O [Pi],koff,"BiP NBD [1]; reactions 1MABA, 2MABA, 3",1 ± 0.3 s⁻¹
same,kon,"BiP NBD [1]; reactions 1MABA, 2MABA, 3",3500 ± 500 M⁻¹ s⁻¹
same,Kd,"BiP NBD [1]; reactions 1MABA, 2MABA, 3: release to apo NBD",280 ± 30 µM
same,koff,"BiP NBD [1]; reactions 4MABA, 5MABA",0.043 s⁻¹
same,kon,"BiP NBD [1]; reactions 4MABA, 5MABA",120 ± 20 M⁻¹ s⁻¹
same,Kd,"BiP NBD [1]; reactions 4MABA, 5MABA: release from NBD·MABA-ADP·Pi",360 ± 20 µM
same,species,BiP NBD [1]; time 4 min,350 µM
same,species,BiP NBD [1]; time 10 min,508 µM
same,species,BiP NBD [1]; time 16 min,626 µM
same,species,BiP NBD [1]; time 22 min,712 µM
same,species,BiP NBD [1]; time 28 min,800 µM
same,species,BiP NBD [1]; time 34 min,840 µM
same,species,BiP NBD [1]; time 40 min,889 µM
same,species,BiP NBD [1]; time 46 min,907 µM
same,species,BiP NBD [1]; time 52 min,929 µM
same,species,BiP NBD [1]; time 58 min,924 µM
same,species,BiP NBD [1]; time 64 min,932 µM
same,Kd,"BiP NBD [2]; 4MABA: Pi binding to NBD·MABA-ADP, 1 mM MABA-ADP",270 ± 40 µM
same,Kd,"BiP NBD [2]; KD3: Pi binding to apo NBD, 100 μM BiP NBD, 25 °C",310 ± 40 µM
same,Kd,"BiP NBD [2]; KD4: Pi binding to NBD·ADP, 1 mM ADP",280 ± 50 µM
same,Average IMABAADP.pi/IMABAADP,BiP NBD [2]; Pi 0.15 mM,0.3154
same,Average IMABAADP.pi/IMABAADP,BiP NBD [2]; Pi 0.25 mM,0.5289
same,Average IMABAADP.pi/IMABAADP,BiP NBD [2]; Pi 0.5 mM,0.6366
[Ca+2] [calcium],cycle,"BiP NBD [3]; Fig 5e: with E2, 3.3 mM calcium, ADP:ATP 1:2",151.31 s and 139.92 s and 133.95 s
same,cycle,"BiP NBD [3]; Fig 5e: with E2, 3.3 mM calcium, ADP:ATP 1:3",107.58 s and 118.91 s and 122.37 s
same,cycle,"BiP NBD [3]; Fig 5e: with E2, 3.3 mM calcium, ADP:ATP 1:4",78.87 s and 92.84 s and 108.72 s
same,cycle,"BiP NBD [3]; Fig 5e: with E2, 3.3 mM calcium, ADP:ATP 1:5",55.19 s and 43.78 s and 57.90 s
same,cycle,"BiP NBD [3]; Fig 5f: without E2, 3.3 mM calcium, ADP:ATP 1:2",191.98 s and 221.37 s and 190.59 s
same,cycle,"BiP NBD [3]; Fig 5f: without E2, 3.3 mM calcium, ADP:ATP 1:3",130.46 s and 156.85 s and 135.76 s
same,cycle,"BiP NBD [3]; Fig 5f: without E2, 3.3 mM calcium, ADP:ATP 1:4",97.52 s and 113.75 s and 85.45 s
same,cycle,"BiP NBD [3]; Fig 5f: without E2, 3.3 mM calcium, ADP:ATP 1:5",72.26 s and 65.96 s and 73.59 s
same,tADP,"BiP NBD [4]; Calcium 0.1 μM, second series ([Pi] 0.5 mM)",52.28 s
same,tADP,"BiP NBD [4]; Calcium 0.1 μM, series without added Pi",15.3 s
same,tADP,"BiP NBD [4]; Calcium 0.5 μM, second series ([Pi] 0.5 mM)",45.66 s
same,tADP,"BiP NBD [4]; Calcium 0.5 μM, series without added Pi",12.1 s
same,tADP,"BiP NBD [4]; Calcium 1 μM, second series ([Pi] 0.5 mM)",50.78 s
same,tADP,"BiP NBD [4]; Calcium 1 μM, series without added Pi",12.7 s
same,tADP,"BiP NBD [4]; Calcium 5 μM, second series ([Pi] 0.5 mM)",54.19 s
same,tADP,"BiP NBD [4]; Calcium 5 μM, series without added Pi",15.7 s
same,tADP,"BiP NBD [4]; Calcium 10 μM, second series ([Pi] 0.5 mM)",50.03 s
same,tADP,"BiP NBD [4]; Calcium 10 μM, series without added Pi",12.2 s
same,tADP,"BiP NBD [4]; Calcium 25 μM, series without added Pi",16.2 s
same,tADP,"BiP NBD [4]; Calcium 50 μM, second series ([Pi] 0.5 mM)",54.42 s
same,tADP,"BiP NBD [4]; Calcium 50 μM, series without added Pi",16.2 s
same,tADP,"BiP NBD [4]; Calcium 75 μM, series without added Pi",16.9 s
same,tADP,"BiP NBD [4]; Calcium 100 μM, second series ([Pi] 0.5 mM)",49.18 s
same,tADP,"BiP NBD [4]; Calcium 100 μM, series without added Pi",18.0 s
same,tADP,"BiP NBD [4]; Calcium 125 μM, series without added Pi",19.5 s
same,tADP,"BiP NBD [4]; Calcium 150 μM, series without added Pi",22.4 s
same,tADP,"BiP NBD [4]; Calcium 175 μM, series without added Pi",21.2 s
same,tADP,"BiP NBD [4]; Calcium 200 μM, series without added Pi",30.8 s
same,tADP,"BiP NBD [4]; Calcium 300 μM, series without added Pi",33.0 s
same,tADP,"BiP NBD [4]; Calcium 400 μM, series without added Pi",36.0 s
same,tADP,"BiP NBD [4]; Calcium 500 μM, second series ([Pi] 0.5 mM)",44.74 s
same,tADP,"BiP NBD [4]; Calcium 500 μM, series without added Pi",38.8 s
same,tADP,"BiP NBD [4]; Calcium 1000 μM, second series ([Pi] 0.5 mM)",48.65 s
same,tADP,"BiP NBD [4]; Calcium 1000 μM, series without added Pi",39.9 s
same,tADP,"BiP NBD [4]; Calcium 5000 μM, second series ([Pi] 0.5 mM)",49.79 s
same,tADP,"BiP NBD [4]; Calcium 5000 μM, series without added Pi",41.9 s
same,lifetime of bound ADP·Pi versus calcium concentration,BiP NBD [4]; in the presence of 0.5 mM phosphate,completely independent of the calcium concentration
same,IC50,"BiP NBD [4]; read-out: IC50 (ADP mean life as a function of calcium concentration), MABA-ADP release, no Pi, fixed 10 mM magnesium, calcium 0.001 to 10 mM",212 ± 7 µM
same,molecular hydrolysis rate in-cyclo khydr,"BiP NBD [5]; 3.3 mM calcium, 10 mM magnesium",1.43 ± 0.06 min⁻¹
same,khydr,"BiP NBD [5]; Fig 5a source data, 3.3 mM calcium: replicates [1]-[3] and average",1.484 min⁻¹ and 1.451 min⁻¹ and 1.372 min⁻¹
same,cycle timing,"BiP NBD [5]; Fig 5d source data, 3.3 mM calcium: replicates [1]-[3] and average",40.4 s and 41.4 s and 43.7 s
